Here are results for ten compounds from patent publication US9328112B2, “Tetracyclic CDK9 kinase inhibitors” (AbbVie Inc., priority 2014, dated 2016).

Molecules are shown by their SMILES.

For one assay, the target named is CDK9/Cyclin T1 (Homo sapiens (Human), UniProt P50750). In words: CDK9 enzyme assay (LANCE ULight TR-FRET kinase assay). In kind it is biochemical. The following applies: 1000 μM ATP, 100 nM ULight MBP, kinase reaction 1 hour. The essentials:
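Human CDK9/Cyclin T1 phosphorylating 100 nM ULight-MBP with 1000 μM ATP in HEPES/MgCl2 buffer, 1 h reaction. Stopped with 20 mM EDTA plus 0.5 nM Eu anti-phospho-MBP antibody, incubated 1 h, read by TR-FRET (ex 320 nm, em 615/665 nm).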

A further assay has as its system H929 cells. In words: Cell viability assay (Cell TiterGlo). The following applies: Homo sapiens, NCI-H929, 24 hours at 37° C., Cell TiterGlo luminescence. It counts as cell-based. The method, then:
The cell viability assay was performed using H929 cells. Cells were seeded in 96-well plates at 10,000 cells/well and, after overnight incubation, treated with compounds in a dose response of 3-fold dilutions from 10 μM to 0.005 μM ([…], 0.1% final DMSO concentration). After 24 hours at 37° C., cell viability was measured using Cell TiterGlo reagent (Promega) with a luminescence reader.
A general note: In ATP-based viability assays light output follows the ATP content of the culture.

Sequence of CDK9/Cyclin T1 (P50750 whole entry): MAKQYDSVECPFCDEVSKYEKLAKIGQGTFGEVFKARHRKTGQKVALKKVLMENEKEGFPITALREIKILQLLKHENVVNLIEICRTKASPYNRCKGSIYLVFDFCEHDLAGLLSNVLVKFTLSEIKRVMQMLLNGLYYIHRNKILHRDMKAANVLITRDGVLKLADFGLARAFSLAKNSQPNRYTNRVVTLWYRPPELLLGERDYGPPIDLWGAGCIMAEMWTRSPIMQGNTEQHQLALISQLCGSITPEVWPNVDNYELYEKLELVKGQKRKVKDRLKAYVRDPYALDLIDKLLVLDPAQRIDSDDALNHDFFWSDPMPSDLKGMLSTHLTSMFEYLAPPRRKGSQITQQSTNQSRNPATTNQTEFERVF
Sequence of CDK9/Cyclin T1 (O60563 whole entry partner): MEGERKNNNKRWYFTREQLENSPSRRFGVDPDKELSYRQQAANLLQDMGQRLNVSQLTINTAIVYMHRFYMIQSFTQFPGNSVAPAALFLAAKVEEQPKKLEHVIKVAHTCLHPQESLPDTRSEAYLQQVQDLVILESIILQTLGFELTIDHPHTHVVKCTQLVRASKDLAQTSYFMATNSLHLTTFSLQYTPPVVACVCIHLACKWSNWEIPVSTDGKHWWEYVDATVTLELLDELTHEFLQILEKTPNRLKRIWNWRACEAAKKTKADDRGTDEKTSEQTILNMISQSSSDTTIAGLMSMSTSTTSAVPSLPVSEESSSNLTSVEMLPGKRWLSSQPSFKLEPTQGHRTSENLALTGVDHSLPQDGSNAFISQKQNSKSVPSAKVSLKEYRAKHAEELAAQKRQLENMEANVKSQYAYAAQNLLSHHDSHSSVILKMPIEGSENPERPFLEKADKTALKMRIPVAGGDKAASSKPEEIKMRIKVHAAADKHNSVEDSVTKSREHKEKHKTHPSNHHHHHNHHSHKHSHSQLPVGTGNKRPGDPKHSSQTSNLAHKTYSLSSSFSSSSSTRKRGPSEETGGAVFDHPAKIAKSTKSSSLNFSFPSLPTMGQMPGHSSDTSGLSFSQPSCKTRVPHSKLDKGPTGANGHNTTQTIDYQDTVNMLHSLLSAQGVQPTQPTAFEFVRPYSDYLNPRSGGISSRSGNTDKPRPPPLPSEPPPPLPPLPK

Regarding `CN1Cc2c(C3=CCN([C@H]4CC[C@@H](CC(=O)O)CC4)CC3)[nH]c3nccc(c23)-c2cc(F)c(F)cc21` [Example 136, {cis-4-[4-(9,10-difluoro-7-methyl-6,7-dihydro-4H-3,4,7-triazadibenzo[cd,f]azulen-5-yl)-3,6-dihydropyridin-1(2H)-yl]cyclohexyl}acetic acid], the IC50 – broadly, the midpoint of a concentration-inhibition curve – against CDK9/Cyclin T1 came out at 58 nM; with H929 cells it was 21 nM.

Turning to `CN1Cc2c(C3=CCN(CC(=O)N4CC(O)C4)CC3)[nH]c3nccc(c23)-c2cc(F)c(F)cc21` [Example 137, 2-[4-(9,10-difluoro-7-methyl-6,7-dihydro-4H-3,4,7-triazadibenzo[cd,f]azulen-5-yl)-3,6-dihydropyridin-1(2H)-yl]-1-(3-hydroxyazetidin-1-yl)ethanone], the half-maximal inhibitory concentration (IC50) was found to be 52 nM against CDK9/Cyclin T1 and 45 nM in the assay on H929 cells.

`CN1Cc2c(C3=CCN(S(C)(=O)=O)CC3)[nH]c3nccc(c23)-c2cccnc21` [Example 138, 7-methyl-5-[1-(methylsulfonyl)-1,2,3,6-tetrahydropyridin-4-yl]-6,7-dihydro-4H-3,4,7,8-tetraazadibenzo[cd,f]azulene]: the IC50 on CDK9/Cyclin T1 was determined as 69 nM; in the assay on H929 cells, 180 nM.

Consider `CNC(=O)N1CC=C(c2[nH]c3nccc4c3c2CN(C)c2ncccc2-4)CC1` [Example 139, N-methyl-4-(7-methyl-6,7-dihydro-4H-3,4,7,8-tetraazadibenzo[cd,f]azulen-5-yl)-3,6-dihydropyridine-1(2H)-carboxamide], for which the values for the IC50 at CDK9/Cyclin T1 and with H929 cells were 94 nM and 180 nM, respectively.

As to `CN1Cc2c(C3=CCN(C4CC(CC(=O)O)C4)CC3)[nH]c3nccc(c23)-c2cc(F)ccc21` (centres unmarked) [Example 140, {3-[4-(10-fluoro-7-methyl-6,7-dihydro-4H-3,4,7-triazadibenzo[cd,f]azulen-5-yl)-3,6-dihydropyridin-1(2H)-yl]cyclobutyl}acetic acid], the IC50 was determined as 42 nM against CDK9/Cyclin T1 and 58 nM with H929 cells.

On to `CN1Cc2c(C3=CCN([C@H]4CC[C@H](C(=O)O)CC4)CC3)[nH]c3nccc(c23)-c2cc(F)ccc21` [Example 141, trans-4-[4-(10-fluoro-7-methyl-6,7-dihydro-4H-3,4,7-triazadibenzo[cd,f]azulen-5-yl)-3,6-dihydropyridin-1(2H)-yl]cyclohexanecarboxylic acid], for which the IC50 on CDK9/Cyclin T1 turned out to be 51 nM; with H929 cells, 30 nM.

`CC[C@H]1c2c(C3=CCNCC3)[nH]c3nccc(c23)-c2cc(F)ccc2N1C` [Example 142, (6S)-6-ethyl-10-fluoro-7-methyl-5-(1,2,3,6-tetrahydropyridin-4-yl)-6,7-dihydro-4H-3,4,7-triazadibenzo[cd,f]azulene]: the IC50 on CDK9/Cyclin T1 came out at 30 nM; in the assay on H929 cells it was 5 nM.

Regarding `CC[C@@H]1c2c(C3=CCNCC3)[nH]c3nccc(c23)-c2cc(F)ccc2N1C` [Example 143, (6R)-6-ethyl-10-fluoro-7-methyl-5-(1,2,3,6-tetrahydropyridin-4-yl)-6,7-dihydro-4H-3,4,7-triazadibenzo[cd,f]azulene], the IC50 against CDK9/Cyclin T1 is 417 nM; in the assay on H929 cells, 582 nM.

On to `CN1Cc2c(C3=CCNCC3)[nH]c3nccc(c23)-c2cc(F)c(F)cc21` [Example 144, 9,10-difluoro-7-methyl-5-(1,2,3,6-tetrahydropyridin-4-yl)-6,7-dihydro-4H-3,4,7-triazadibenzo[cd,f]azulene], for which the IC50 stood at 29 nM on CDK9/Cyclin T1 and 7 nM in the assay with H929 cells.

Consider `CN1Cc2c(C3=CCN(CC(=O)O)CC3)[nH]c3nccc(c23)-c2cc(F)c(F)cc21` [Example 145, [4-(9,10-difluoro-7-methyl-6,7-dihydro-4H-3,4,7-triazadibenzo[cd,f]azulen-5-yl)-3,6-dihydropyridin-1(2H)-yl]acetic acid], for which the values for the IC50 at CDK9/Cyclin T1 and in the assay on H929 cells were 42 nM and 180 nM, respectively.
